Read-outs that look alike come from different tables or passages of the source.
Legend:
[1] = target: T1, EGFR L858R/T790M/C797S (BaF3-LTC cells) (Homo sapiens, UniProt P00533, C797S/L858R/T790M); assay: EGFR degradation HTRF assay, BaF3-LTC cells; assay type: cell-based
T1 construct: expressed in transfected cells; host or cells: BaF3
Summary of the method: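 Cells treated 16 h at 37 °C, 5% CO2 in medium with 0.2% DMSO; top final concentration 10 uM, 5-fold dilution, 8 doses. Lysates read by HTRF (665/620 nm); degradation % versus DMSO high control, DC50 from four-parameter fit, Dmax as maximal degradation.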

[2] = system: EGFR Del19/T790M/C797S (H1975-clone #28); assay: EGFR degradation HTRF assay, H1975-clone #28 DTC cells; assay type: cell-based
Summary of the method: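 H1975 clones stably overexpressing mutant EGFR, with endogenous EGFR knocked out by sgRNA and homozygosity confirmed by sequencing, were treated 16h at 37° C. with compounds in 0.2% DMSO (top final 10 uM, 5-fold, 8 doses). Lysates were read by HTRF (665/620 nm); DC50 and Dmax came from fitting % degradation versus DMSO control.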

[3] = BaF3-LTC cells; EGFR degradation, IC50 (DC50) from curve fit; read-out: DC50(nM) BaF3-LTC
[4] = H1975 # 28 DTC cells; maximum percentage of inhibition (degradation)
[5] = read-out: DC50(nM) H1975 # 28 DTC; H1975 # 28 DTC cells; EGFR degradation, IC50 (DC50) from curve fit
[6] = BaF3-LTC cells; maximum percentage of inhibition (degradation); read-out: Dmax (%) BaF3-LTC
[7] = H1975 # 28 DTC cells; EGFR degradation, IC50 (DC50) from curve fit; read-out: DC50(nM) H1975 # 28 DTC
[8] = read-out: DC50(nM) BaF3-LTC; BaF3-LTC cells; EGFR degradation, IC50 (DC50) from curve fit
[9] = read-out: Dmax (%) BaF3-LTC, BaF3-LTC cells; maximum percentage of inhibition (degradation)

T1 sequence (P00533 25-1210 T790M/C797S/L858R): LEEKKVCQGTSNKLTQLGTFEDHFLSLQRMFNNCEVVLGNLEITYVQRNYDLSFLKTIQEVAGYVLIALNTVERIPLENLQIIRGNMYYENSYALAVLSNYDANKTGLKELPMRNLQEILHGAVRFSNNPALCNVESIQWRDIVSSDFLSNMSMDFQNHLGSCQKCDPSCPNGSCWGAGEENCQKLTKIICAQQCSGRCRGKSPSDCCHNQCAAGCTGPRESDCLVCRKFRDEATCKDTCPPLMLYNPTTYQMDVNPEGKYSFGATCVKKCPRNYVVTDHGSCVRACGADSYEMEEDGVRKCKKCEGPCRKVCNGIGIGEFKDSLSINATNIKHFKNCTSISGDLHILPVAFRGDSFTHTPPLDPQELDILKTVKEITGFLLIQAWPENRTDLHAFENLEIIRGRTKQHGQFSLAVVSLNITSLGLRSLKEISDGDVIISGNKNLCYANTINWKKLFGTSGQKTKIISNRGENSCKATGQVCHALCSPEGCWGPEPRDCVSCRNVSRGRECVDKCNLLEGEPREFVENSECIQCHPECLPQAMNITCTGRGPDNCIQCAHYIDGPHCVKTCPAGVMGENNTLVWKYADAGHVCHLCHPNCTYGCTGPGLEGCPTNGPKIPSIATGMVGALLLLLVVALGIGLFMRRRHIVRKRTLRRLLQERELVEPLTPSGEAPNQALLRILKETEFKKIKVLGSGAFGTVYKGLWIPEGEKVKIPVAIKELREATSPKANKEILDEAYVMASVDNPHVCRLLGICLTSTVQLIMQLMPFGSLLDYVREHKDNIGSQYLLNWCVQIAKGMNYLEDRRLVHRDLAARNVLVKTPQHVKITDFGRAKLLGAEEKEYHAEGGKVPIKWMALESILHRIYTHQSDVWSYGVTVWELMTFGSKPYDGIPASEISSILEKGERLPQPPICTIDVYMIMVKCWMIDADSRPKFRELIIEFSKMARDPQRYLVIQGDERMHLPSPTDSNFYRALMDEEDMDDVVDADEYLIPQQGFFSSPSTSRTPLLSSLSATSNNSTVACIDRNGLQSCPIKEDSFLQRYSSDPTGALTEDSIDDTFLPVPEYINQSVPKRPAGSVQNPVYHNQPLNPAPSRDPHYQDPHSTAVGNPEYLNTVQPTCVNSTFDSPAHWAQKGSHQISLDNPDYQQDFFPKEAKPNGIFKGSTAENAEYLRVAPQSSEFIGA

Row | Compound | DC50 [1, 3] [nM] | Dmax (%) H1975 # 28 DTC [2, 4] | DC50 [2, 5] [nM] | Dmax [1, 6] [%] | DC50 [2, 7] [nM] | DC50 [1, 8] [nM] | Dmax [1, 9] [%]
1 | CCOc1cc(N2CCC(N3CCN(CCc4cccc5c4oc(=O)n5C4CCC(=O)NC4=O)CC3)CC2)c(CC)cc1Nc1ncc(Br)c(Nc2ccc3nc(CC)ncc3c2P(C)(C)=O)n1 (centres unmarked) [Example 563, 3-(7-(2-(4-(1-(4-((5-bromo-4-((5-(dimethylphosphoryl)-2-ethylquinazolin-6-yl)amino)pyrimidin-2-yl)amino)-5-ethoxy-2-ethylphenyl)piperidin-4-yl)piperazin-1-yl)ethyl)-2-oxobenzo[d]oxazol-3(2H)-yl)piperidine-2,6-dione] | 7.69 | 81.88% | 0.732 |  |  |  | 
2 | Cc1ccc2c(P(C)(C)=O)c(Nc3nc(Nc4cc(C)c(N5CCC(N6CCN(CCc7cccc8c7n(C)c(=O)n8C7CCC(=O)NC7=O)CC6)CC5)cc4OC4CC4)ncc3Br)ccc2n1 (centres unmarked) [Example 602, 3-(4-(2-(4-(1-(4-((5-bromo-4-((5-(dimethylphosphoryl)-2-methylquinolin-6-yl)amino)pyrimidin-2-yl)amino)-5-cyclopropoxy-2-methylphenyl)piperidin-4-yl)piperazin-1-yl)ethyl)-3-methyl-2-oxo-2,3-dihydro-1H-benzo[d]imidazol-1-yl)piperidine-2,6-dione] | 3.66 | 77.98% |  | 93 | 0.913 |  | 
3 | CCc1ccc2c(P(C)(C)=O)c(Nc3nc(Nc4cc(CC)c(N5CCC(N6CCN(C(=O)Cc7c(C)ccc8c7C(C)(C)C(=O)N8C7CCC(=O)NC7=O)CC6)CC5)cc4OC)ncc3Br)ccc2n1 (centres unmarked) [Example 658, 3-(4-(2-(4-(1-(4-((5-bromo-4-((5-(dimethylphosphoryl)-2-ethylquinolin-6-yl)amino)pyrimidin-2-yl)amino)-2-ethyl-5-methoxyphenyl)piperidin-4-yl)piperazin-1-yl)-2-oxoethyl)-3,3,5-trimethyl-2-oxoindolin-1-yl)piperidine-2,6-dione] | 4.46 | 71.03 7% |  | 84.2 | 0.59 |  | 
4 | CCc1ccc2c(P(C)(C)=O)c(Nc3nc(Nc4cc(CC)c(N5CCC(N6CCN(C(=O)Cc7cccc8c7n(C)c(=O)n8C7CCC(=O)NC7=O)CC6)CC5)cc4OC)ncc3Br)cc(F)c2n1 (centres unmarked) [Example 671, 3-(4-(2-(4-(1-(4-((5-bromo-4-((5-(dimethylphosphoryl)-2-ethyl-8-fluoroquinolin-6-yl)amino)pyrimidin-2-yl)amino)-2-ethyl-5-methoxyphenyl)piperidin-4-yl)piperazin-1-yl)-2-oxoethyl)-3-methyl-2-oxo-2,3-dihydro-1H-benzo[d]imidazol-1-yl)piperidine-2,6-dione] | 4.85 | 75.9% |  | 92.7 | 0.219 |  | 
5 | CCc1cc(Nc2ncc(Br)c(Nc3cc(F)c4nc(C)ccc4c3P(C)(C)=O)n2)c(OC)cc1N1CCC(N2CCN(C(=O)C3CCN(c4cc(F)c(C5CCC(=O)NC5=O)c(F)c4)CC3)CC2)CC1 (centres unmarked) [Example 512, 3-(4-(4-(4-(1-(4-((5-bromo-4-((5-(dimethylphosphoryl)-8-fluoro-2-methylquinolin-6-yl)amino)pyrimidin-2-yl)amino)-2-ethyl-5-methoxyphenyl)piperidin-4-yl)piperazine-1-carbonyl)piperidin-1-yl)-2,6-difluorophenyl)piperidine-2,6-dione] | 6.46 | 60.54% |  | 92 | 2.36 |  | 
6 | CCc1ccc2c(P(C)(C)=O)c(Nc3nc(Nc4cc(CC)c(N5CCC(N6CCN(C(=O)C7CCN(c8cccc9c8oc(=O)n9C8CCC(=O)NC8=O)CC7)CC6)CC5)cc4OC)ncc3Br)ccc2n1 (centres unmarked) [Example 450, 3-(7-(4-(4-(1-(4-((5-bromo-4-((5-(dimethylphosphoryl)-2-ethylquinolin-6-yl)amino)pyrimidin-2-yl)amino)-2-ethyl-5-methoxyphenyl)piperidin-4-yl)piperazine-1-carbonyl)piperidin-1-yl)-2-oxobenzo[d]oxazol-3(2H)-yl)piperidine-2,6-dione] |  | 77% | 0.616 |  |  | 2.68 | 87.7
7 | CCOc1cc(N2CCC(N3CCN(CCCc4cccc5c4oc(=O)n5C4CCC(=O)NC4=O)CC3)CC2)c(CC)cc1Nc1ncc(Br)c(Nc2ccc3nc(CC)ncc3c2P(C)(C)=O)n1 (centres unmarked) [Example 615, 3-(7-(3-(4-(1-(4-((5-bromo-4-((5-(dimethylphosphoryl)-2-ethylquinazolin-6-yl)amino)pyrimidin-2-yl)amino)-5-ethoxy-2-ethylphenyl)piperidin-4-yl)piperazin-1-yl)propyl)-2-oxobenzo[d]oxazol-3(2H)-yl)piperidine-2,6-dione] |  | 72.36% | 0.921 |  |  | 7.91 | 91
8 | CCOc1cc(N2CCC(N3CCN(CC4CN(c5cccc6c5n(C)c(=O)n6C5CCC(=O)NC5=O)C4)CC3)CC2)c(CC)cc1Nc1ncc(Br)c(Nc2ccc3c(=O)n(CC)ncc3c2P(C)(C)=O)n1 (centres unmarked) [Example 622, 3-(4-(3-((4-(1-(4-((5-bromo-4-((5-(dimethylphosphoryl)-2-ethyl-1-oxo-1,2-dihydrophthalazin-6-yl)amino)pyrimidin-2-yl)amino)-5-ethoxy-2-ethylphenyl)piperidin-4-yl)piperazin-1-yl)methyl)azetidin-1-yl)-3-methyl-2-oxo-2,3-dihydro-1H-benzo[d]imidazol-1-yl)piperidine-2,6-dione] | 37.3 | 75.46% |  | 94 | 4.78 |  | 
9 | CCOc1cc(N2CCC(N3CCN(CCCOc4cc(F)c([C@H]5CCC(=O)NC5=O)c(F)c4)CC3)CC2)c(CC)cc1Nc1ncc(Br)c(Nc2ccc3c(=O)n(CC)ncc3c2P(C)(C)=O)n1 [Example 735, (R)-3-(4-(3-(4-(1-(4-((5-bromo-4-((5-(dimethylphosphoryl)-2-ethyl-1-oxo-1,2-dihydrophthalazin-6-yl)amino)pyrimidin-2-yl)amino)-5-ethoxy-2-ethylphenyl)piperidin-4-yl)piperazin-1-yl)propoxy)-2,6-difluorophenyl)piperidine-2,6-dione] | 18 | 80.09% |  | 87.4 | 0.641 |  | 
10 | CCOc1cc(N2CCC(N3CCN(CCc4cccc5c4n(CC)c(=O)n5C4CCC(=O)NC4=O)CC3)CC2)c(CC)cc1Nc1ncc(Br)c(Nc2ccc3nc(CC)ncc3c2P(C)(C)=O)n1 (centres unmarked) [Example 737, 3-(4-(2-(4-(1-(4-((5-bromo-4-((5-(dimethylphosphoryl)-2-ethylquinazolin-6-yl)amino)pyrimidin-2-yl)amino)-5-ethoxy-2-ethylphenyl)piperidin-4-yl)piperazin-1-yl)ethyl)-3-ethyl-2-oxo-2,3-dihydro-1H-benzo[d]imidazol-1-yl)piperidine-2,6-dione] | 3.72 | 78.21% |  |  | 0.944 |  | 
11 | CCc1ccc2c(P(C)(C)=O)c(Nc3nc(Nc4cc(CC)c(N5CCC(N6CCN(CCCOc7cc(F)c([C@H]8CCC(=O)NC8=O)c(F)c7)CC6)CC5)cc4OC)ncc3Br)ccc2n1 [Example 734, (R)-3-(4-(3-(4-(1-(4-((5-bromo-4-((5-(dimethylphosphoryl)-2-ethylquinolin-6-yl)amino)pyrimidin-2-yl)amino)-2-ethyl-5-methoxyphenyl)piperidin-4-yl)piperazin-1-yl)propoxy)-2,6-difluorophenyl)piperidine-2,6-dione] | 7.79 | 76.3% |  | 92.2 | 0.9 |  | 
12 | CCc1cc(Nc2ncc(Br)c(Nc3ccc4nc(C)ccc4c3P(C)(C)=O)n2)c(OC)cc1N1CCC(N2CCN(CCc3cc(F)c(C4CCC(=O)NC4=O)c(F)c3)[C@@H](C)C2)CC1 (stereo partly drawn) [Example 693, 3-(4-(2-((S)-4-(1-(4-((5-bromo-4-((5-(dimethylphosphoryl)-2-methylquinolin-6-yl)amino)pyrimidin-2-yl)amino)-2-ethyl-5-methoxyphenyl)piperidin-4-yl)-2-methylpiperazin-1-yl)ethyl)-2,6-difluorophenyl)piperidine-2,6-dione] | 13.8 | 66.27% |  | 84.5 | 0.812 |  | 
13 | CCOc1cc(N2CCC(N3CCN(CCCCc4cc(F)cc5c4oc(=O)n5C4CCC(=O)NC4=O)CC3)CC2)c(CC)cc1Nc1ncc(Br)c(Nc2ccc3nc(CC)ccc3c2P(C)(C)=O)n1 (centres unmarked) [Example 632, 3-(7-(4-(4-(1-(4-((5-bromo-4-((5-(dimethylphosphoryl)-2-ethylquinolin-6-yl)amino)pyrimidin-2-yl)amino)-5-ethoxy-2-ethylphenyl)piperidin-4-yl)piperazin-1-yl)butyl)-5-fluoro-2-oxobenzo[d]oxazol-3(2H)-yl)piperidine-2,6-dione] | 14.2 | 81.77% |  | 95.1 | 2.2 |  | 

Source: patent US20230265116A1, “DEGRADATION OF (EGFR) BY CONJUGATION OF EGFR INHIBITORS WITH E3 LIGASE LIGAND AND METHODS OF USE” (BEIGENE, LTD., priority 2020, published 2023)
